According to patent US20240158430A1, “NOVEL COMPOUND OR SALT THEREOF, AND ANTITUMOR ACTIVATOR CONTAINING SAME AS ACTIVE INGREDIENT” (AKITA UNIVERSITY, priority 2021, published 2024):

Assays:
HCT116 [1] = test: Cytocidal effect, HCT116; format: cell-based; details: 2 μM and 5 μM, cells counted after 48 and 72 hours
Method: (§1) The method is as follows. Each cell line was added to 6-well plate by 5×10^4, 2 μM and 5 μM of GO-Y199 were added after 24 hours, and the number of cells was counted after 48 hours and 72 hours.

[2] = tested on: apoptosis-related protein; test: Apoptosis-related protein, M30 Apotosense ELISA; format: cell-based; details: control 360 U/L
Method: (§2) The influence of GO-Y199 on NF-kB (p65) was investigated. The method is as follows. 3×10^6 cells of the HCT116 cell line were added to a 10-cm plate, 2 μM of GO-Y199 was added after 24 hours, the cells were collected after 24 hours, embedded in iPGell (GenOStaff), and fixed in formalin, paraffin blocks were then prepared, and immuno-histochemistry was performed with an anti-NF-kB (p65) antibody. In addition, 2 μM and 5 μM of GO-Y199 were added, lysates were collected after 24 hours, and an expression level of NF-kB (p65) was analyzed using an ELISA-plate (NF-kBp65 (pS536) SimpleStep-ELISA-kit, Abcam). An amount of protein was corrected by the absorbance of A 280 nm. The upper part of FIG. 14 indicates photographs of the control group and the GO-Y199 (2 μM)-added group after 24 hours. The lower part of FIG. 14 indicates results of the t-test of these groups after 24 hours. FIG. 15 indicates the comparison results of the NF-kB inhibitory effect of GO-Y199 (2 μM, 5 μM)-added groups with respect to the control group.
(§3) The influence of GO-Y199 on Caspase 3 was investigated. The method is as described above. Immunohistochemistry was performed with an anti-Caspase 3 antibody. Quantification of apoptosis-related protein was performed using M30 Apotosense ELISA (PEVIVA). The upper part of FIG. 20 indicates photographs of the control group and the GO-Y199 (2 μM)-added group after 24 hours. […]

[3] = tested on: pancreatic cancer cell line Panc-1; test: Cell growth inhibitory activity, Panc-1; format: cell-based; details: Table 7
Method: [The source words this procedure for another cell line and reports this cell line under the same test.] (§4) The cell growth inhibitory activity against a colorectal cancer cell line HCT116 was measured. As an index of cell growth inhibitory activity, a concentration at which cell growth was inhibited by 50% as compared with a control (IC50) was used. The method is as follows. HCT116 was added to a 6-well plate by 5×10^4, compounds having various concentrations were added after 24 hours, and the number of cells was counted after 72 hours of culture. As the control, DMSO was used in an amount equal to the amount added in accordance with the addition concentration of the highest-concentration compound. The number of cells at each concentration relative to the control was expressed as a percentage.
(§5) The method is as described above.

Caspase 3 = test: Influence on Caspase 3, immunohistochemistry; format: cell-based; details: 2 μM; 24 hours; control 1.0±0.1%
Method: as §2, §3

[4] = tested on: gastric cancer cell line H-111-TC; test: Cell growth inhibitory activity, H-111-TC; format: cell-based; details: Table 6
Method: as §4, with “percentage. In Table 3, the turbidities of the compounds are also indicated.” for “percentage.”
The cell growth inhibitory activity (IC50) of each of curcumin, GO-Y199, and GO-Y206 against the colorectal cancer cell lines DLD-1 and HCT116 and the gastric cancer cell lines KATO III and H-111-TC was measured. The method is as described above. FIG. 8 indicates the results of cell growth inhibitory activity of these compounds against various cancer cell lines.

[5] = tested on: cutaneous T-cell lymphoma cell line HH; test: Cell growth inhibitory activity, HH; format: cell-based; details: Table 10
Method: [The source words this procedure for another cell line and reports this cell line under the same test.] as §4, §5

[6] = tested on: malignant pleural mesothelioma cell line NCI-H226; test: Cell growth inhibitory activity, NCI-H226; format: cell-based; details: Table 8
Method: as §4, with “percentage. In Table 3, the turbidities of the compounds are also indicated.” for “percentage.”
(§6) GO-Y198, GO-Y199, and GO-Y200 against malignant pleural mesothelioma cell lines NCI-H226 and MSTO211H was measured. The method is as described above. For comparison, the IC50 of cisplatin (CDDP), a cytocidal anticancer agent, is also indicated.

Kato III = test: Cytocidal effect, Kato III; format: cell-based; details: 2 μM and 5 μM, cells counted after 48 and 72 hours
Method: as §1

[7] = tested on: gastric cancer cell line SH-10-TC; test: Cell growth inhibitory activity, SH-10-TC; format: cell-based
Method: [The source words this procedure for another cell line and reports this cell line under the same test.] as §4, §5

[8] = tested on: breast cancer cell line HCC1395; test: Cell growth inhibitory activity, HCC1395; format: cell-based
Method: [The source words this procedure for another cell line and reports this cell line under the same test.] as §4, §5

pSTAT3 = test: Influence on pSTAT3, immunohistochemistry; format: cell-based; details: 2 μM; 24 hours; control 10.2±1.6%
Method: as §2
The influence of GO-Y199 on pSTAT3 was investigated. The method is as described above. Immunohistochemistry was performed with an anti-pSTAT3 antibody. The upper part of FIG. 16 indicates photographs of the control group and the GO-Y199 (2 μM)-added group after 24 hours. The lower part of FIG. 16 indicates results of the t-test of these groups after 24 hours.

[9] = tested on: malignant pleural mesothelioma cell line MSTO211H; test: Cell growth inhibitory activity, MSTO211H; format: cell-based; details: Table 8
Method: as §4, with “percentage. In Table 3, the turbidities of the compounds are also indicated.” for “percentage.”
as §6

[10] = tested on: malignant melanoma cell line G361; test: Cell growth inhibitory activity, G361; format: cell-based; details: Table 9
Method: [The source words this procedure for another cell line and reports this cell line under the same test.] as §4, §5

HCT116 [11] = test: In vivo antitumor effect, HCT116 subcutaneous implant; details: nude mouse, HCT116 s.c.; 1 mg single tail vein injection; maximum diameter 4 days after; control 113.7±12.4%
Method: The in vivo antitumor effect of GO-Y199 was investigated. The method is as follows. HCT116 was implanted subcutaneously into a nude mouse. After tumor formation, 100 mM GO-Y199 in DMSO was dissolved in 100 μL of PBS and injected once into the tail vein of the mouse (corresponding to 1 mg of GO-Y199). As a control group, a DMSO-PBS solution having the equivalent concentration was injected once into the tail vein. The maximum diameter of the tumor was measured 4 days after the administration.

For `COCOc1cc(/C=C/C(=O)CC(SCCOCCOCCOCCOCc2cn([C@@H]3O[C@H](CO)[C@@H](O[C@@H]4O[C@H](CO)[C@H](O)[C@H](O)[C@H]4O)[C@H](O)[C@H]3O)nn2)c2cc(OCOC)cc(OCOC)c2)cc(OCOC)c1` (stereo partly drawn) [GO-Y199], the cytocidal effect (HCT116 [1]) was “cytocidal effect”, the “apoptosis-related protein activity (M30)” value ([2]; 2 μM) was 1,830 U/L and the “apoptosis-related protein activity (M30)” value ([2]; 5 μM) was 2,050 U/L. For the same compound, the IC50 [3] was 0.95 µM, the “proportion of Caspase 3-expressing cells” value (Caspase 3) was 57.4±2.6% and the IC50 [4] was 2.9 µM. For the same compound, the IC50 [5] was 1.11 µM, the IC50 [6] was 4.7 µM and the cytocidal effect (Kato III) was “cytocidal effect”. For the same compound, the IC50 ([7]; Table 4, 72 hours) was 1000 nM, the “GO-Y199 vs GO-Y030 (IC50 comparison), SH-10-TC” value ([7]; Table 5, ratio of IC50) was 0.65 and the “GO-Y199 vs curcumin (IC50 comparison), SH-10-TC” value ([7]; Table 5, ratio of IC50) was 0.124. For the same compound, the IC50 ([8]; Table 4, 72 hours) was 720 nM, the “GO-Y199 vs GO-Y030 (IC50 comparison), HCC1395” value ([8]; Table 5, ratio of IC50) was 0.34 and the “relative expression level of pSTAT3” value (pSTAT3) was 0.3±0.5%. The IC50 [9] was 2.4 µM, the IC50 [10] was 1.4 µM and the “tumor augmentation, % of that before the administration” value (HCT116 [11]) was 95.2±20.0%.
